Test results reported in patent US12527519B2, “Neurostimulation devices and methods” (Cardionomix, Inc., priority 2016, dated 2026).

System: normal, non-HF ovine model
Experiment: Right ventricle vs left ventricle contractility after a change, pressure max(dP/dt) as surrogate, heartbeat-by-heartbeat correlation
Format: in vivo
Details: max(dP/dt) as surrogate for contractility, calcium at 5 mL
Description: The correlation was a heartbeat-by-heartbeat analysis. Pressure measurements, taken by a Millar catheter comprising a MEMS pressure sensor, in units of max(dP/dt) was used as a surrogate for contractility.
The first change, a dobutamine injection, provided a very high contractility increase greater than 500%. The average correlation between right ventricle contractility and left ventricle contractility was very good at 0.91, where 1.00 is a perfect correlation. Accordingly, if a subject is given a dobutamine injection, measuring changes to right ventricle contractility can provide accurate information about changes to left ventricle contractility. The first change was repeated three times.
The second change, calcium injection at 5 mL, provided a contractility increase of about 20%. […] The average correlation between right ventricle contractility and left ventricle contractility using a Millar (MEMS) sensor on a catheter was very good at 0.91. The average correlation between right ventricle contractility and left ventricle contractility using a fluid-filled lumen of a Swan-Ganz catheter in communication with an external pressure sensor was also very good at 0.87. […]

Q: How did the “Contractility % Increase” value turn out when calcium [Calcium Injection] was run?
A: ~20%

Q: And the “Contractility % Increase” value (listed as calcium injection)?
A: about 20%
